pEC50, pIC50: −log10 of the molar value. Calls of active or inactive are those of the source.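 The calls were made as follows: active = compounds giving half or more protection of infected cells from virus-caused growth loss, again on retest; inactive = the rest.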

For orientation: pEC50 means the EC50 on a negative log10 scale, so that one unit is a factor of ten. By pIC50 is commonly meant the IC50 on a negative log10 scale, so that one unit is a factor of ten.

The test relates to CEM cells HIV-1 protection, formazan growth assay. The experiment in a line: NCI AIDS Antiviral Assay. The settings on record: for pIC50: measured here: growth of uninfected CEM cells. The procedure, abridged: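 Human CEM cells, uninfected and HIV-1-infected, received five drug concentrations, and growth was read by soluble formazan assay. Compounds giving at least 50% protection were retested; reproducible 100% protection defined confirmed active.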

As for `O/N=C/C1C(OCc2ccccc2)C(OCc2ccccc2)C(OCc2ccccc2)CN1Cc1ccccc1` (stereo unspecified), the result was inactive.
As to `COC(=O)C1C(C(=O)OC)C2C(=O)C3C(C(=O)OC)C(C(=O)OC)C3C(=O)C12` (stereo unspecified), the pEC50 was less than 4.04 and the pIC50 is less than 4.04.
For the compound `O=C(NCc1ccccc1)c1c(O)c2ccccc2[nH]c1=O`, the pEC50 is less than 3.70 and the pIC50 is less than 3.70.
For the compound `CC(Cl)(/C=C/Cl)C(Cl)/C=C/C(Cl)(CCl)CBr` (stereo unspecified), the result was inactive.
Take `CN(C)[C@@H]1C(=O)C(C(=O)NCNC2(C(=O)O)CCCC2)=C(O)[C@@]2(O)C(=O)C3=C(O)c4c(O)cccc4[C@@](C)(O)[C@H]3C[C@@H]12`: the pEC50 was less than 3.67 and the pIC50 is 3.93.
For `O=C(OCc1ccccc1)N1c2cc([N+](=O)[O-])ccc2C(=O)N2CCC[C@H]2C1O` (stereo partly specified), in that order: less than 3.70 and 3.86.
For the compound `Cc1cc2c(C(C)C)c(O)c(O)c(C=Nc3cccc(Cl)c3)c2c(O)c1-c1c(C)cc2c(C(C)C)c(O)c(O)c(C=Nc3cccc(Cl)c3)c2c1O`, the result was inactive.
With `O=C(O)C/C=C(\C(=O)O)N1C(=O)c2ccccc2C1=O`, the result was inactive.
With `COc1ccc(/C=c2/sc3n(c2=O)NC2(CCC(C)CC2)NN=3)cc1` (stereo unspecified), the result was inactive.
For `CC(=O)OC1CC[C@]2(C)C3CC[C@@]4(C)C(CCC4[C@H](C)CCCC(C)C)[C@@H]3CCC2(Br)C1` (stereo partly specified), the outcome was inactive.
Turning to `NNc1n[nH]c(=S)n1N`, the pEC50 was less than 3.70 and the negative-log IC50 (pIC50) was less than 3.70.
Take `Nc1c(C(=O)N/N=C/c2ccccc2)sc(=S)n1-c1ccccc1`: the pEC50 was less than 5.39 and the pIC50 was less than 5.39.
Regarding `O=[N+]([O-])c1ccc(Cc2ccc([N+](=O)[O-])cc2)cc1`, the pEC50 was less than 4.55 and the pIC50 is less than 4.55.
For `CC(=O)N(C(C)=O)c1c(N)n(C)c(=O)[nH]c1=O`, the result was inactive.
Still for that read-out and setting: the value for `CCOC(=O)N1CCc2cc(OC)c(OC)cc2/C1=C\c1ccc(OC)c(OC)c1` was “inactive”.
Take `COC(=O)CCCN(C)c1n[nH]c(N)n1`: the pEC50 is less than 3.70 and the pIC50 was less than 3.70.
On to `Cc1cn(C2C/C(=N\O)C(CO)O2)c(=O)[nH]c1=O` (stereo unspecified), for which the pEC50 is 4.90 and the pIC50 is 3.76.
For `OC(C/C=N/Nc1ccccc1)(C(F)(F)Cl)C(F)(F)Cl`, in that order: less than 3.70 and 5.00.
Regarding `CCOC(=O)c1c(N2CCCC2)ncn(Cc2ccccc2)c1=S`, the pEC50 was less than 3.70 and the pIC50 was less than 3.70.
`CC(C)(C)C#COC(=O)c1ccccc1`: the pEC50 is less than 3.60 and the pIC50 is less than 3.60.
`Cc1c(C)c(C)c2c(c1C)CC2=O`: the pEC50 is less than 4.11 and the pIC50 is less than 4.11.
On to `Oc1ccccc1CNCc1nc2ccccc2[nH]1`, for which the pEC50 was less than 3.70 and the pIC50 was 4.13.
The matching figures for `OCC1CC(F)C(n2cnc3c(NO)ncnc32)O1` (stereo unspecified): less than 3.82 and less than 3.82.
As to `O=C(CCc1nc(=S)[nH][nH]1)Nc1cc(Cl)c(Cl)cc1Cl`, the pEC50 is less than 3.71 and the pIC50 is less than 3.71.
As to `CCOC(=O)C1=C(C)N2CCOC2(C)C(C(=O)OC)C1c1cccc(Cl)c1` (stereo unspecified), the pEC50 is less than 4.18 and the pIC50 is less than 4.18.
In the case of `CC(=O)NN1CCN(C)CC1`, the pEC50 is less than 3.70 and the pIC50 was less than 3.70.
Turning to `CCOC(=O)C1C/C2=C(/CCCCCCCCCC2)SCCCS1` (stereo unspecified), the pEC50 is less than 3.70 and the pIC50 was 4.57.
In the case of `O=C(Nc1cc(C(=O)Nc2ccc(C3=NCCN3)cc2)cc(C2=NCCN2)c1)c1ccc(C(=O)Nc2cc(C(=O)Nc3ccc(C4=NCCN4)cc3)cc(C3=NCCN3)c2)cc1`, the pEC50 is 5.27 and the pIC50 was 4.05.
As for `COc1ccc2c(c1)OCC1(O)Cc3ccccc3OC21` (stereo unspecified), the pEC50 was less than 3.70 and the pIC50 is 3.97.
As to `NC(=S)SC1=NNC2(C(=O)N1)c1ccccc1-c1ccccc12`, the pEC50 was less than 3.70 and the pIC50 was 4.68.
The matching figures for `C#CCOC(=O)c1ccccc1OC(C)=O.[C-]#[O+].[C-]#[O+].[C-]#[O+].[C-]#[O+].[C-]#[O+].[C-]#[O+].[Co].[Co]`: less than 3.70 and 5.03.
Take `CC(=O)Nc1sc([N+](=O)[O-])cc1S(=O)(=O)c1ccc(Cl)cc1`: the pEC50 is less than 3.70 and the negative logarithm of the IC50 (pIC50) is 5.83.
For `O=c1ccn(COC(COCc2ccccc2)COCc2ccccc2)c(=O)[nH]1`, the outcome was inactive.
As to `CC(C)Oc1c(-c2c(OC(C)C)c(=O)c2=O)c(=O)c1=O`, the pEC50 is less than 3.70 and the pIC50 is less than 3.70.
Consider `O=[N+]([O-])c1ccc2nncc(N3CC3)c2c1`, for which the outcome was inactive.
Still for that read-out and setting: to `O=C1C(c2ccc3ccccc3n2)=C(O)c2ccccc21` belongs “inactive”.
With `COC(=O)/C=C/c1cc2c(cc1-c1c(C(=O)O)cc(OC)c(OC)c1OC)OCO2`, the pEC50 is less than 3.22 and the pIC50 is less than 3.22.
As for `O=C1OC2c3ccccc3C(=O)C2(c2ccccc2)N1c1ccccc1` (stereo unspecified), the pEC50 was less than 3.70 and the pIC50 was 3.90.
In the case of `O=S1(=O)Oc2cccc3cccc1c23`, the result was inactive.
In the case of `CCOC(=O)c1cc2c(nc1N)C(=O)CCC2`, the pEC50 is less than 3.70 and the pIC50 is 3.95.
Consider `Cc1cccc(C)c1NC(=O)CCCC(=O)CC(=O)/C=C/c1ccccc1`, for which the pEC50 is less than 3.30 and the pIC50 was less than 3.30.
With `O=C(O)C(CS(=O)(=O)O)Nc1ccc([N+](=O)[O-])cc1[N+](=O)[O-]` (stereo unspecified), the pEC50 was less than 3.16 and the pIC50 was less than 3.16.
Turning to `C=C1C2CCC3(CCC4C5(C)CCCC4(CN(CC)C5)C3C2)C1O` (stereo unspecified), the outcome was inactive.
Consider `S=c1sc2cscc2s1`, for which the pEC50 was less than 4.28 and the pIC50 is 4.51.
`c1ccc(C[N+]23CCC(CC2)C3c2ccccc2)cc1` (stereo unspecified): the pEC50 was less than 3.08 and the pIC50 was 3.83.
On to `CCOC(=O)c1nc(SC)sc1NC(=O)c1ccc(Cl)cc1`, for which the pEC50 was less than 3.70 and the pIC50 is 3.71.
On to `CC1CC(C)(C)C2=NCCN21` (stereo unspecified), for which the pEC50 was less than 2.79 and the pIC50 is less than 2.79.
For `O=C(O)c1onc2ccccc12`, the pEC50 is less than 2.82 and the negative-log IC50 (pIC50) is 3.00.
For `CC1=NOC(=O)/C1=C/c1ccc([N+](=O)[O-])cc1`, the pEC50 was less than 2.97 and the pIC50 is 3.03.
For `CC1(C)N=C(c2ccccc2)C2(c3ccccc3)N1C2(C)C` (stereo unspecified), the pEC50 is less than 3.63 and the pIC50 was 3.65.
The matching figures for `COC(=O)N1[C@@H]2C=CC=CC=C2[C@@H](OC)N1C(=O)OC`: less than 3.80 and 4.05.
On to `CCc1nc2ccc(C(F)(F)F)cc2[nH]c1=O`, for which the pEC50 is less than 3.70 and the pIC50 is 3.98.
Turning to `N#Cc1nc(Nc2ccc([N+](=O)[O-])cc2)sc1N`, the pEC50 is less than 4.42 and the pIC50 is 4.72.
Turning to `Nc1ncnc2c1ncn2C1C(=O)C(CO)C1CO` (stereo unspecified), the pEC50 is less than 3.63 and the pIC50 was less than 3.63.
In the case of `COc1c2c(cc3c1C1(O)Cc4ccc5c(c4C[N+]1(C)CC3)OCO5)OCO2` (stereo unspecified), the pEC50 is less than 4.21 and the pIC50 is less than 4.21.
With `CCC(=O)C1(N2CCOCC2)CCN(CCCC(=O)c2ccc(F)cc2)CC1`, the pEC50 was less than 3.70 and the pIC50 was less than 3.70.
Regarding `COC(C[C@H]1CCCC[C@]1(O)/C(=C\CO[Si](C(C)C)(C(C)C)C(C)C)Sc1ccccc1)OC`, the pEC50 is less than 3.70 and the pIC50 was 4.14.
Regarding `CCN(CC)C(c1ccc(N(C)C)cc1)C(c1ccc(N(C)C)cc1)N(CC)CC` (stereo unspecified), the pEC50 is less than 3.80 and the pIC50 is 4.37.
In the case of `COC(=O)c1ccccc1C1CN=NC12Cc1ccc3c(c1C2=O)CCC3` (stereo unspecified), the pEC50 is less than 3.70.
For the compound `Oc1ccc(Cl)cc1-c1nc2ccccc2s1`, the pEC50 was less than 3.86 and the pIC50 is 4.12.
On to `CC(C)[C@@H]1C=C(c2ccccc2)c2ccccc2C1C(C#N)(C#N)C(C)C` (stereo partly specified), for which the pEC50 was less than 4.69 and the pIC50 was less than 4.69.
On to `CN1C(=S)N2CCCCCCCC2c2c1nc(CCl)[nH]c2=O` (stereo unspecified), for which the pEC50 was less than 3.70 and the pIC50 was 5.16.
As to `CC1(C)COC(c2ccc(CC(O)c3ccccc3)cc2)=N1` (stereo unspecified), the pEC50 is less than 3.70 and the pIC50 was 4.38.
For `CCCCCC(=O)c1ccc2[nH]c3c(C)cc([N+](=O)[O-])c(C)c3c2c1`, in that order: less than 5.37 and less than 5.37.
On to `CCOC(=O)C(=O)Nc1c(C)cccc1C(C)C`, for which the pEC50 was less than 3.00 and the pIC50 was less than 3.00.
As for `COC1=CC(=O)c2ccc(C(C)C)cc2C1(C)C1=NC(C)(C)CO1` (stereo unspecified), the pEC50 was less than 3.82 and the pIC50 was less than 3.82.
Take `Cc1cn([C@H]2C[C@@H](N3C(=O)c4ccccc4C3=O)[C@@H](CO[Si](C)(C)C(C)(C)C)O2)c(=O)[nH]c1=O`: the pEC50 is less than 3.70 and the pIC50 is 3.82.
Regarding `N=c1oc2c(O)c(O)ccc2cc1C(N)=O`, the pEC50 is less than 5.08 and the pIC50 was less than 5.08.
`NC1=NC(c2ccccc2)C2=C(N1)C(=O)N(Cc1ccccc1)C2` (stereo unspecified): the pEC50 was less than 3.69 and the pIC50 is 4.14.
The matching figures for `COc1cc(C(=O)NC(CCN)(c2ccccc2)c2ccccc2)cc(OC)c1OC`: less than 3.70 and 4.17.
Regarding `Nc1ccc(S(=O)(=O)Nc2nc3ccccc3nc2N2CCCCCC2)cc1`, the pEC50 is less than 3.70 and the pIC50 is 4.48.
The matching figures for `CCOC(=O)NC(=O)c1cn(CCSCCOC(=O)NCCCCCCNC(=O)OCCSCCn2cc(C(=O)NC(=O)OCC)c(=O)n(C)c2=O)c(=O)n(C)c1=O`: less than 5.08 and less than 5.08.
As for `CCc1ccc(/C(C#N)=C/c2ccc(OC)cc2)cc1`, the pEC50 is less than 3.70 and the pIC50 is 5.40.
The matching figures for `CCN(CCC#N)C(=O)Nc1ccccc1`: less than 3.70 and less than 3.70.
For `COCn1c2ccc(OC(C)=O)cc2c2c(=O)oc(N(C)C)nc21`, the pEC50 was less than 3.70 and the negative logarithm of the IC50 (pIC50) was less than 3.70.

For the origin of these results see PubChem BioAssay AID179 (DTP/NCI, 2004).
